Test results as given in paper PMC9899610 (Cancer Science, 2022).
Where “and” joins values, the source holds several entries; their conditions need not be identical. Identical values can stand only once. Entries after “also recorded” stand apart in the source; their conditions may differ. Like-named read-outs stand apart in the source and are kept apart here.

Legend:
advanced solid tumors = assay: Objective tumor response; format: in vivo, human
serum Pi = assay: Post hoc hyperphosphatemia assessment with phosphate-binding therapy; format: in vivo, human
[1] = for RAUC0–last / RCmax: ratio
[2] = test system: patients with advanced solid tumors; settings: global phase I study, 64% Caucasian patients; cited from earlier work
clinical = settings: human, plasma, oral; for AUC(0-inf): AUC0–inf; for AUC(0-t): AUC0–last
[3] = test system: cancer cell lines harboring various FGFR gene abnormalities; settings: cited from earlier work
[4] = FGFR‐abnormal patients with GC, All patients (n = 21)
[5] = FGFR‐abnormal patients with GC, FGRF2 CN <10 (n = 10)
[6] = FGFR‐abnormal patients with GC, FGRF2 CN ≥10 (n = 11)
[7] = Futibatinib regimen QD (n = 43)
[8] = Futibatinib regimen TIW (n = 39)
[9] = With FGF/FGFR abnormalities (n = 52)
[10] = Without FGF/FGFR abnormalities or unknown (n = 30)
[11] = 40 QD patients treated with phosphate-binding therapy
[12] = Week 3 (day 21), QD 20 mg, n = 2, mean
[13] = Week 3, TIW 36 mg, n = 3, mean (standard deviation)
[14] = Week 3, TIW 56 mg, n = 6, mean (standard deviation)
[15] = Week 3, TIW 80 mg, n = 5, mean (standard deviation)
[16] = Week 3, TIW 120 mg, n = 3, mean (standard deviation)
[17] = Week 3, TIW 160 mg, n = 4, mean (standard deviation)
[18] = 16 mg, Day 1, QD 16 mg, n = 3, mean (standard deviation)
[19] = 16 mg, Week 3, TIW 16 mg, n = 1
[20] = 20 mg, Day 1, QD 20 mg, n = 7, mean (standard deviation)
[21] = 20 mg, Week 3 (day 21), QD 20 mg, n = 2, mean
[22] = 24 mg, Week 3, TIW 24 mg, n = 1

C=CC(=O)N1CC[C@H](n2nc(C#Cc3cc(OC)cc(OC)c3)c3c(N)ncnc32)C1 [futibatinib]
Best response CR (advanced solid tumors; [4]): 0 (0.0) n (%)
Best response NE (advanced solid tumors; [4]): 2 (9.5) n (%)
Best response PD (advanced solid tumors; [4]): 12 (57.1) n (%)
Best response PR (advanced solid tumors; [4]): 4 (19.0) n (%)
Best response SD (advanced solid tumors; [4]): 3 (14.3) n (%)
DCR (95% CI) (advanced solid tumors; [4]): 33.3 (14.6–57.0) %
ORR (95% CI) (advanced solid tumors; [4]): 19.0 (5.4–41.9) %
Best response CR (advanced solid tumors; [5]): 0 (0.0) n (%)
Best response NE (advanced solid tumors; [5]): 2 (20.0) n (%)
Best response PD (advanced solid tumors; [5]): 7 (70.0) n (%)
Best response PR (advanced solid tumors; [5]): 0 (0.0) n (%)
Best response SD (advanced solid tumors; [5]): 1 (10.0) n (%)
DCR (95% CI) (advanced solid tumors; [5]): 10.0 (0.3–44.5) %
ORR (95% CI) (advanced solid tumors; [5]): 0 (0–30.8) %
Best response CR (advanced solid tumors; [6]): 0 (0.0) n (%)
Best response NE (advanced solid tumors; [6]): 0 (0.0) n (%)
Best response PD (advanced solid tumors; [6]): 5 (45.5) n (%)
Best response PR (advanced solid tumors; [6]): 4 (36.4) n (%)
Best response SD (advanced solid tumors; [6]): 2 (18.2) n (%)
DCR (95% CI) (advanced solid tumors; [6]): 54.5 (23.4–83.3) %
ORR (95% CI) (advanced solid tumors; [6]): 36.4 (10.9–69.2) %
Best response CR (advanced solid tumors; [7]): 0 (0.0) n (%)
Best response NE (advanced solid tumors; [7]): 4 (9.3) n (%)
Best response PD (advanced solid tumors; [7]): 23 (53.5) n (%)
Best response PR (advanced solid tumors; [7]): 5 (11.6) n (%)
Best response SD (advanced solid tumors; [7]): 11 (25.6) n (%)
DCR (95% CI) (advanced solid tumors; [7]): 37.2 (23.0–53.3) %
ORR (95% CI) (advanced solid tumors; [7]): 11.6 (3.9–25.1) %
Best response CR (advanced solid tumors; [8]): 0 (0.0) n (%)
Best response NE (advanced solid tumors; [8]): 5 (12.8) n (%)
Best response PD (advanced solid tumors; [8]): 23 (59.0) n (%)
Best response PR (advanced solid tumors; [8]): 1 (2.6) n (%)
Best response SD (advanced solid tumors; [8]): 10 (25.6) n (%)
DCR (95% CI) (advanced solid tumors; [8]): 28.2 (15.0–44.9) %
ORR (95% CI) (advanced solid tumors; [8]): 2.6 (0.1–13.5) %
Patients with best response of confirmed PR (advanced solid tumors; GC patients with FGFR2 CN <10): 0/10
Patients with best response of confirmed PR (advanced solid tumors; GC patients with FGFR2 CN ≥10): 4/11
Best response CR (advanced solid tumors; Total (n = 82)): 0 (0.0) n (%)
Best response NE (advanced solid tumors; Total (n = 82)): 9 (11.0) n (%)
Best response PD (advanced solid tumors; Total (n = 82)): 46 (56.1) n (%)
Best response SD (advanced solid tumors; Total (n = 82)): 21 n (%) and 21 (25.6) n (%)
DCR (95% CI) (advanced solid tumors; Total (n = 82)): 32.9 (22.9–44.2) %
ORR (95% CI) (advanced solid tumors; Total (n = 82)): 7.3 (2.7–15.2) %
Best response CR (advanced solid tumors; [9]): 0 (0.0) n (%)
Best response NE (advanced solid tumors; [9]): 6 (11.5) n (%)
Best response PD (advanced solid tumors; [9]): 27 (51.9) n (%)
Best response PR (advanced solid tumors; [9]): 6 (11.5) n (%)
Best response SD (advanced solid tumors; [9]): 13 (25.0) n (%)
DCR (95% CI) (advanced solid tumors; [9]): 36.5 (23.6–51.0) %
ORR (95% CI) (advanced solid tumors; [9]): 11.5 (4.4–23.4) %
Best response CR (advanced solid tumors; [10]): 0 (0.0) n (%)
Best response NE (advanced solid tumors; [10]): 3 (10.0) n (%)
Best response PD (advanced solid tumors; [10]): 19 (63.3) n (%)
Best response PR (advanced solid tumors; [10]): 0 (0.0) n (%)
Best response SD (advanced solid tumors; [10]): 8 (26.7) n (%)
DCR (95% CI) (advanced solid tumors; [10]): 26.7 (12.3–45.9) %
ORR (95% CI) (advanced solid tumors; [10]): 0 (0–11.6) %
Patients with confirmed PR (advanced solid tumors; patients with GC evaluated for response): 4/21
Futibatinib dose interruption (serum Pi; [11]): 30%
Futibatinib dose reduction (serum Pi; [11]): 12.5%
Safety concerns regardless of presence or absence of phosphate-binding therapy (serum Pi; futibatinib QD): No safety concerns were identified
Patients achieving the target serum Pi level (serum Pi; futibatinib dose reduction after starting phosphate-binding therapy (15 patients)): 86.7%
Hyperphosphatemia events leading to discontinuation of futibatinib (serum Pi; in vivo): not leading to futibatinib discontinuation; also recorded: none of the hyperphosphatemia events led to discontinuation of futibatinib
Patients achieving the target serum Pi level (serum Pi; no dose reduction after starting phosphate-binding therapy (10/20)): 50.0%
Cmax ([1]; Day 1, TIW 80 mg, n = 6, mean (standard deviation)): 866 (366) [42.3] ng/ml
t1/2 ([1]; Day 1, TIW 120 mg, n = 3, mean (standard deviation)): 6.64 (1.08) [16.3] ^b h
Dose proportionality of Cmax and AUC ([1]; TIW regimens, single and multiple administrations): dose‐proportional changes in Cmax and AUC0–last
Cmax [1, 12]: 173 (NC) [NC] ng/ml
RAUC0–last [1, 12]: 1.29 (NC) [NC]
RCmax [1, 12]: 0.91 (NC) [NC]
Cmax ([1]; Week 3, TIW 8 mg, n = 1): 167 (NC) [NC] ng/ml
t1/2 ([1]; Week 3, TIW 8 mg, n = 1): 1.74 (NC) [NC] h
RAUC0–last ([1]; Week 3, TIW 8 mg, n = 1): 1.69 (NC) [NC]
RCmax ([1]; Week 3, TIW 8 mg, n = 1): 1.24 (NC) [NC]
t1/2 ([1]; Week 3, TIW 16 mg, n = 1): 5.27 (NC) [NC] h
RAUC0–last ([1]; Week 3, TIW 16 mg, n = 1): 1.39 (NC) [NC]
RCmax ([1]; Week 3, TIW 16 mg, n = 1): 0.96 (NC) [NC]
RAUC0–last ([1]; Week 3, TIW 24 mg, n = 1): 0.80 (NC) [NC]
RCmax ([1]; Week 3, TIW 24 mg, n = 1): 0.72 (NC) [NC]
RAUC0–last [1, 13]: 1.51 (0.47) [30.9]
RCmax [1, 13]: 0.88 (0.44) [49.7]
RAUC0–last [1, 14]: 1.36 (0.44) [32.5]
RCmax [1, 14]: 1.25 (0.36) [28.8]
AUC0–last [1, 15]: 7394 (3731) [50.5] ng·h/ml
RAUC0–last [1, 15]: 1.25 (0.25) [20.0]
RCmax [1, 15]: 0.96 (0.09) [9.1]
RAUC0–last [1, 16]: 1.27 (0.29) [23.1]
RCmax [1, 16]: 1.02 (0.34) [33.2]
RAUC0–last [1, 17]: 1.54 (0.64) [41.6]
RCmax [1, 17]: 1.05 (0.82) [78.2]
Renal excretion of unchanged futibatinib ([1]; in vivo): negligible
Dose proportionality of Cmax and AUC [2]: statistically dose‐proportional between 4 mg and 24 mg QD
AUC(0-inf) (clinical; 8 mg, Day 1, TIW 8 mg, n = 1): 390 ng·h/mL
AUC(0-inf) (clinical; 8 mg, Week 3, TIW 8 mg, n = 1): 663 ng·h/mL
AUC(0-t) (clinical; 8 mg, Day 1, TIW 8 mg, n = 1): 387 ng·h/mL
AUC(0-t) (clinical; 8 mg, Week 3, TIW 8 mg, n = 1): 653 ng·h/mL
Cmax (clinical; 8 mg, Day 1, TIW 8 mg, n = 1): 135 ng/mL
Tmax (clinical; 8 mg, Day 1, TIW 8 mg, n = 1, median): 1.87 h
half-life (clinical; 8 mg, t1/2, Day 1, TIW 8 mg, n = 1): 1.58 h
AUC(0-inf) (clinical; [18]): 1020 ng·h/mL
AUC(0-inf) (clinical; 16 mg, Day 1, TIW 16 mg, n = 1): 1190 ng·h/mL
AUC(0-inf) (clinical; [19]): 1580 ng·h/mL
AUC(0-t) (clinical; [18]): 1010 ng·h/mL
AUC(0-t) (clinical; 16 mg, Day 1, TIW 16 mg, n = 1): 1140 ng·h/mL
AUC(0-t) (clinical; [19]): 1580 ng·h/mL
Cmax (clinical; [18]): 235 ng/mL
Cmax (clinical; 16 mg, Day 1, TIW 16 mg, n = 1): 189 ng/mL
Cmax (clinical; [19]): 182 ng/mL
Tmax (clinical; 16 mg, Day 1, QD 16 mg, n = 3, median (minimum, maximum)): 0.95 h
Tmax (clinical; 16 mg, Day 1, TIW 16 mg, n = 1, median): 1.95 h
Tmax (clinical; 16 mg, Week 3, TIW 16 mg, n = 1, median): 2.9 h
half-life (clinical; 16 mg, t1/2, Day 1, QD 16 mg, n = 3, mean (standard deviation)): 2.68 h
half-life (clinical; 16 mg, t1/2, Day 1, TIW 16 mg, n = 1): 5.72 h
AUC(0-inf) (clinical; [20]): 983 ng·h/mL
AUC(0-inf) (clinical; [21]): 729 ng·h/mL
AUC(0-t) (clinical; [20]): 977 ng·h/mL
AUC(0-t) (clinical; [21]): 727 ng·h/mL
Cmax (clinical; [20]): 253 ng/mL
half-life (clinical; 20 mg, t1/2, Day 1, QD 20 mg, n = 7, mean (standard deviation)): 2.18 h
half-life (clinical; 20 mg, t1/2, Week 3 (day 21), QD 20 mg, n = 2, mean): 3.05 h
AUC(0-inf) (clinical; 24 mg, Day 1, TIW 24 mg, n = 1): 623 ng·h/mL
AUC(0-inf) (clinical; [22]): 502 ng·h/mL
AUC(0-t) (clinical; 24 mg, Day 1, TIW 24 mg, n = 1): 621 ng·h/mL
AUC(0-t) (clinical; [22]): 499 ng·h/mL
Cmax (clinical; 24 mg, Day 1, TIW 24 mg, n = 1): 204 ng/mL
Cmax (clinical; [22]): 146 ng/mL
Tmax (clinical; 24 mg, Day 1, TIW 24 mg, n = 1, median): 1.95 h
Tmax (clinical; 24 mg, Week 3, TIW 24 mg, n = 1, median): 3.98 h
half-life (clinical; 24 mg, t1/2, Day 1, TIW 24 mg, n = 1): 1.55 h
half-life (clinical; 24 mg, t1/2, Week 3, TIW 24 mg, n = 1): 1.47 h
AUC(0-inf) (clinical; 36 mg, Week 3, TIW 36 mg, n = 3, mean): 2160 ng·h/mL
half-life (clinical; 36 mg, t1/2, Week 3, TIW 36 mg, n = 2, mean): 3.64 h
Susceptibility to resistance development [3]: low susceptibility to resistance development
